What was measured:
[1] = target: T1, human bradykinin 1 receptor (B1R) (Homo sapiens, UniProt P46663); assay: Functional investigation on the human bradykinin 1 receptor (B1R), Ca2+ FLIPR assay in CHO K1 hB1R cells; format: cell-based; conditions: B1R antagonism human; test substance 10 μM; Ca2+ FLIPR, CHO K1 hB1R cells
T1 construct: expressed in transfected cells; host or cells: CHO K1 cells
T1 sequence (P46663 1-353): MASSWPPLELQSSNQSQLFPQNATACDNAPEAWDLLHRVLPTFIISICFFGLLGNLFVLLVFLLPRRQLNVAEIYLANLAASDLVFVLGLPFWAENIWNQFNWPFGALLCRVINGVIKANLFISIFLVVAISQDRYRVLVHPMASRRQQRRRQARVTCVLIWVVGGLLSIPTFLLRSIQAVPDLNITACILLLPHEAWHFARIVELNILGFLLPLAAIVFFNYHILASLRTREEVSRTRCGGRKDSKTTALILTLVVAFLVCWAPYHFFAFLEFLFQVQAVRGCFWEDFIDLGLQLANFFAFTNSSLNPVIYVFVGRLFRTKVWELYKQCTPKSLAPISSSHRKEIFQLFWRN
Summary of the method: (§1)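 Cells were dye-loaded with Fluo-4 plus probenecid, then test substances added and Ca2+ influx compared with agonist control for % activation. After 10-20 min, EC80 agonist (Lys-Des-Arg9-bradykinin human; Des-Arg9-bradykinin rat) was applied; suppression gave % inhibition and IC50 values.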

[2] = target: T2, bradykinin 1 receptor (B1R) of the rat (Rattus norvegicus, UniProt P97583); assay: Functional investigation on the rat bradykinin 1 receptor (B1R), Ca2+ FLIPR assay in CHO K1 rB1R cells; format: cell-based; conditions: B1R antagonism rat; test substance 10 μM; Ca2+ FLIPR, CHO K1 rB1R cells
T2 construct: expressed in transfected cells; host or cells: CHO K1 cells
T2 sequence (P97583 1-337): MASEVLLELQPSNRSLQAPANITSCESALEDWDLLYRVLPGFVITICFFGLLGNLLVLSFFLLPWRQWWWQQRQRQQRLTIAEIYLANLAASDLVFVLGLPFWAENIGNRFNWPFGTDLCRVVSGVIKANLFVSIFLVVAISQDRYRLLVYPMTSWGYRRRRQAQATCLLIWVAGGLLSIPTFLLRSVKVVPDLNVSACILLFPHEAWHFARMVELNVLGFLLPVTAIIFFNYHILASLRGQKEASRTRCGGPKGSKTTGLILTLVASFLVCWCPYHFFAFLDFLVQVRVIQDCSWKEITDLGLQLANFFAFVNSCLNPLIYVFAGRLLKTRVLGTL
Summary of the method: as §1

CN(C)C(c1ccc(F)cc1)C1CCC(NC(=O)COCCN(C)S(=O)(=O)c2c(Cl)cccc2Cl)CC1 (stereo not shown) [Example 363]
B1R Ant. h [10 μM] % Inhibition [1]: 80%
B1R Ant. r [10 μM] % Inhibition [2]: 29%

CN(C)C(c1cccc(F)c1)C1CCC(NC(=O)COCCN2CCN(S(=O)(=O)c3ccccc3)CC2)CC1 (stereo not shown) [Example 364]
B1R Ant. h [10 μM] % Inhibition [1]: 0%
B1R Ant. r [10 μM] % Inhibition [2]: −9%

COc1cc(C)c(S(=O)(=O)N2CCC(OCC(=O)NC3CCC(C(c4ccc(F)cc4)N(C)C)CC3)C2)c(C)c1C (stereo not shown) [Example 365]
B1R Ant. h [10 μM] % Inhibition [1]: 48%
B1R Ant. r [10 μM] % Inhibition [2]: 2%

COc1cc(C)c(S(=O)(=O)N2CCN(CCOCC(=O)NCC3CCC(C(c4ccc(F)cc4)N(C)C)CC3)CC2)c(C)c1C (stereo not shown) [Example 366]
B1R Ant. h [10 μM] % Inhibition [1]: 55%
B1R Ant. r [10 μM] % Inhibition [2]: 16%

COc1ccc(S(=O)(=O)N2CCCCC2COCC(=O)NCC2CCC(C(c3ccc(Cl)cc3)N(C)C)CC2)cc1OC (stereo not shown) [Example 367]
B1R Ant. h [10 μM] % Inhibition [1]: −9%
B1R Ant. r [10 μM] % Inhibition [2]: 2%

CN(C)C(c1ccc(F)cc1)C1CCC(CCNC(=O)COCCN(C)S(=O)(=O)c2cccc(C(F)(F)F)c2)CC1 (stereo not shown) [Example 368]
B1R Ant. h [10 μM] % Inhibition [1]: 39%
B1R Ant. r [10 μM] % Inhibition [2]: 17%

CN(C)C(c1ccc(F)cc1)C1CCC(NC(=O)COC2CCN(S(=O)(=O)c3ccc(Cl)cc3)C2)CC1 (stereo not shown) [Example 370]
B1R Ant. h [10 μM] % Inhibition [1]: −14%
B1R Ant. r [10 μM] % Inhibition [2]: 3%

Cc1ccc(S(=O)(=O)N2CCC(OCC(=O)NC3CCC(C(c4ccc(F)cc4)N(C)C)CC3)C2)cc1 (stereo not shown) [Example 371]
B1R Ant. h [10 μM] % Inhibition [1]: 7%
B1R Ant. r [10 μM] % Inhibition [2]: 5%

COc1cc(C)c(S(=O)(=O)N(CCOCC(=O)NC2CCC(C(c3cccc(F)c3)N(C)C)CC2)Cc2ccccc2)c(C)c1 (stereo not shown) [Example 372]
B1R Ant. h [10 μM] % Inhibition [1]: 65%
B1R Ant. r [10 μM] % Inhibition [2]: 22%

COc1ccc(S(=O)(=O)N2Cc3ccccc3CC2COCC(=O)NCC2CCC(C(CCc3ccccc3)N(C)C)CC2)cc1 (stereo not shown) [Example 373]
B1R Ant. h [10 μM] % Inhibition [1]: 98%
B1R Ant. r [10 μM] % Inhibition [2]: 12%

COc1ccc(S(=O)(=O)N2Cc3ccccc3CC2COCC(=O)NCCC2CCC(C(c3ccc(Cl)cc3)N(C)C)CC2)cc1 (stereo not shown) [Example 374]
B1R Ant. h [10 μM] % Inhibition [1]: 18%
B1R Ant. r [10 μM] % Inhibition [2]: 11%

CN(C)C(c1ccc(Cl)cc1)C1CCC(CCNC(=O)COC2CCN(S(=O)(=O)c3ccccc3)C2)CC1 (stereo not shown) [Example 375]
B1R Ant. h [10 μM] % Inhibition [1]: 2%
B1R Ant. r [10 μM] % Inhibition [2]: 6%

CN(C)C(c1cccc(F)c1)C1CCC(CCNC(=O)COC2CCN(S(=O)(=O)c3ccccc3)C2)CC1 (stereo not shown) [Example 376]
B1R Ant. h [10 μM] % Inhibition [1]: −17%
B1R Ant. r [10 μM] % Inhibition [2]: 12%

CN(C)C(c1ccc(F)cc1)C1CCC(CCNC(=O)COCCN(C)S(=O)(=O)c2ccc(Cl)cc2)CC1 (stereo not shown) [Example 377]
B1R Ant. h [10 μM] % Inhibition [1]: 28%
B1R Ant. r [10 μM] % Inhibition [2]: 25%

COc1cc(C)c(S(=O)(=O)N(C)CCOCC(=O)NCCC2CCC(C(c3ccc(Cl)cc3)N(C)C)CC2)c(C)c1 (stereo not shown) [Example 378]
B1R Ant. h [10 μM] % Inhibition [1]: 104%
B1R Ant. r [10 μM] % Inhibition [2]: 101%

COc1ccc(S(=O)(=O)N(C)CCOCC(=O)NCC2CCC(C(c3ccc(Cl)cc3)N(C)C)CC2)cc1OC (stereo not shown) [Example 379]
B1R Ant. h [10 μM] % Inhibition [1]: −5%
B1R Ant. r [10 μM] % Inhibition [2]: 49%

CN(C)C(c1ccc(F)cc1)C1CCC(NC(=O)COC2CCN(S(=O)(=O)c3ccc(F)cc3)C2)CC1 (stereo not shown) [Example 381]
B1R Ant. h [10 μM] % Inhibition [1]: −19%
B1R Ant. r [10 μM] % Inhibition [2]: 12%

CN(C)C(c1ccc(F)cc1)C1CCC(NC(=O)COCCN(C)S(=O)(=O)c2c(Cl)cc(Cl)cc2Cl)CC1 (stereo not shown) [Example 382]
B1R Ant. h [10 μM] % Inhibition [1]: 103%
B1R Ant. r [10 μM] % Inhibition [2]: 30%

COc1ccc(S(=O)(=O)N2CCCCC2CCOCC(=O)NCCC2CCC(C(c3ccc(Cl)cc3)N(C)C)CC2)cc1 (stereo not shown) [Example 383]
B1R Ant. h [10 μM] % Inhibition [1]: 77%
B1R Ant. r [10 μM] % Inhibition [2]: 33%

CN(C)C(c1ccc(Cl)cc1)C1CCC(CNC(=O)COC2CCN(S(=O)(=O)c3ccc(Cl)cc3)C2)CC1 (stereo not shown) [Example 384]
B1R Ant. h [10 μM] % Inhibition [1]: 31%
B1R Ant. r [10 μM] % Inhibition [2]: 25%

Source: patent US8106055B2, “Substituted amide compounds” (Gruenenthal GmbH, priority 2007, dated 2012)
